# Measured values as given in patent US6573286B1, “2-(2,6-disubstituted phenyl)-4-aryl-5-alkyl-1,3-oxazoline compounds” (Dow AgroSciences LLC, priority 2002, dated 2003).
# Experiments:
# Format in all cases: in vivo
# [1] = system: cabbage looper (Trichoplusia ni); assay: Insecticidal test for cabbage looper, treated cabbage leaf disc; conditions: 2nd instar larvae on dipped cabbage leaf discs, 5 days; for pest or weed control at 400 ppm: Trichoplusia ni, foliar, 120 h, read-out: CL: activity against cabbage looper (% Control rating)
# Description: (§1) Insecticidal test for tobacco budworm (Heliothis virescens), beet armyworm (Spodoptera exigua), and cabbage looper (Trichoplusia ni). To prepare test solution, the test compound was formulated at 400 ppm in 7.5 mL of 2 acetone:1 tap water. 250 μL of the test solution was pipetted upon the surface of 8 mL of lepidopteran diet (modified Shorey) contained in each of five one-ounce plastic cups (one cup=1 replication). […] After air-drying, the treated leaf discs were placed individually into one-ounce plastic cups. Each dried, treated cotton cotyledon disc was infested with a 2nd instar tobacco budworm larva, and each cabbage leaf disc was infested with a 2nd instar cabbage looper larva. Cups containing the treated substrates and larvae were capped and then held in a growth chamber at 25° C., 50-55% RH, and 14 hr light:10 hr dark for 5 days.
# [2] = system: beet armyworm (Spodoptera exigua); assay: Insecticidal test for beet armyworm, treated lepidopteran diet; conditions: 2nd instar larvae on treated diet, 5 days; for pest or weed control at 400 ppm: Spodoptera exigua, 120 h, read-out: BAW: activity against beet armyworm (% Control rating)
# Description: as §1
# [3] = system: two-spotted spider mite (Tetranychus urticae); assay: Insecticidal test for two-spotted spider mite, ovicide method; conditions: ovicide method on cotton leaf discs, 6 days; for pest or weed control at 2.5 ppm: Tetranychus urticae, foliar, 144 h, read-out: SM: activity against two-spotted spider mite (% Control rating)
# Description: Insecticidal test for two-spotted spider mite (Tetranychus urticae) Ovicide Method: Ten adult female two-spotted spider mites were placed on eight 2.2 cm leaf discs of cotton leaf, allowed to oviposit over 24 hours, and thereafter removed. […] Discs were placed on an agar substrate and held at 24° C. and 90% RH for 6 days.
# [4] = system: Sweetpotato Whitefly (Bemisia tabacia); assay: Insecticidal test for Sweetpotato Whitefly, sprayed cotton plants; conditions: 200 ppm spray, large nymphs counted after 13 days
# Description: Insecticidal test for Sweetpotato Whitefly (Bemisia tabacia) Four mg of each test compound were dissolved by adding 4 mL of a 90:10 acetone:ethanol solvent mixture to the vial containing the sample compound. This solution was added to 16 mL of water containing 0.05% Tween 20 surfactant to produce 20 mL of a 200 ppm spray solution. Five-week-old cotton plants reared in a greenhouse were stripped of all foliage except for the two uppermost true leaves that were greater than 5 cm in diameter. These plants were then placed into a laboratory colony of whiteflies for two days for oviposition by the colony females. All whiteflies were then removed from the test plants with pressurized air. The spray solution was then applied to the test plants with a hand-held syringe fitted with hollow cone nozzle. One mL spray solution was applied to each leaf top and bottom for a total of 4 mL per plant. Four replications of each test compound utilized a total of 16 mL spray solution. Plants were air dried and then placed in a holding chamber (28° C. and 60% RH) for 13 days. Compound efficacy was evaluated by counting, under an illuminated magnifying glass, the number of large nymphs (3rd-4th instar) per leaf. Percent control based on reduction of large nymphs of a test compound compared to solution-only (no test compound) sprayed plants is reported in Table 1-8.
# [5] = system: tobacco budworm (Heliothis virescens); assay: Insecticidal test for tobacco budworm, treated cotton cotyledon leaf disc; conditions: 2nd instar larvae on dipped cotton cotyledon discs, 5 days; for pest or weed control at 400 ppm: Heliothis virescens, foliar, 120 h, read-out: TBW: activity against tobacco budworm (% Control rating)
# Description: as §1
# [6] = system: cotton aphid (Aphis gossypii); assay: Insecticidal test for cotton aphid, sprayed squash cotyledons; conditions: 50 ppm spray, graded after 3 days
# Description: Insecticidal test for cotton aphid (Aphis gossypii) To prepare spray solutions, 1 mg of each test compound was dissolved into 1 mL of a 90:10 acetone:ethanol solvent. This 1 mL of chemical solution was added to 19 mL of water containing 0.05% Tween 20 surfactant to produce a 50 ppm spray solution. Squash cotyledons were infested with cotton aphid (all life stages) 16-20 hours prior to application of spray solution. The solution was sprayed on both sides of each infested squash cotyledon (0.5 mL×2 each side) with a sweeping action until runoff. The plants were allowed to air dry and held for 3 days in a controlled room at 26° C. and 40% RH after which time the test was graded. Grading was by actual count using a dissecting microscope and comparison of test counts to the untreated check.
Structure (SMILES),pest or weed control at 400 ppm [1] [%],pest or weed control at 400 ppm [2] [%],pest or weed control at 2.5 ppm [3] [%],pest or weed control at 400 ppm [5] [%],further results
"C[C@@H]1OC(c2c(F)cccc2F)=N[C@@H]1c1ccc(-c2ccc(C(F)(F)F)cc2)cc1 (mixture of isomers) [Compound 5, (4R,5S)- and 4S,5R)-2-(2,6-difluorophenyl)-5-methyl-4-[4′-(trifluoromethyl)-1,1′-biphenyl-4-yl]-4,5-dihydro-1,3-oxazole]",90 to 100,90 to 100,90 to 100,–,–
"C[C@H]1OC(c2c(F)cccc2F)=N[C@H]1c1ccc(-c2ccc(OC(F)(F)F)cc2)cc1 (racemic) [Compound 6, (4S,5R)- and (4R,5S)-2-(2,6-difluorophenyl)-4-(4′-trifluoromethoxy-1,1′-biphenyl-4-yl)-5-methyl-4,5-dihydro-1,3-oxazole]",–,–,–,–,WF: activity against whitefly (% Control rating) [4]: B (80-89)
"Cc1ccc(-c2ccc([C@@H]3N=C(c4c(F)cccc4F)O[C@@H]3C)cc2)cc1C (racemic) [Compound 8, (4S,5R)- and (4R,5S)-2-(2,6-difluorophenyl)-4-(3′,4′-dimethyl-1,1′-biphenyl-4-yl)-5-methyl-4,5-dihydro-1,3-oxazole]",90 to 100,90 to 100,–,60 to 69,–
"CCOc1ccc(-c2ccc([C@H]3N=C(c4c(F)cccc4F)O[C@H]3C)cc2)cc1 (racemic) [Compound 12, (4R,5S)- and (4S,5R)-2-(2,6-difluorophenyl)-4-(4′-ethoxy-1,1′-biphenyl-4-yl)-5-methyl-4,5-dihydro-1,3-oxazole]",90 to 100,90 to 100,–,80 to 89,–
"C[C@H]1OC(c2c(F)cccc2F)=NC1c1ccc(-c2ccc3c(c2)OC(F)(F)O3)cc1 (mixture of isomers) [Compound 13, (4R,5S)- and (4S,5R)-4-[4-(2,2-difluoro-1,3-benzodioxol-5-yl)phenyl]-2-(2,6-difluorophenyl)-5-methyl-4,5-dihydro-1,3-oxazole]",90 to 100,–,–,< 50,–
"C[C@@H]1OC(c2c(F)cccc2F)=N[C@@H]1c1ccc(-c2ccccc2F)cc1 (racemic) [Compound 15, (4R,5S)- and (4S,5R)-2-(2,6-difluorophenyl)-4-(2′-fluoro-1,1′-biphenyl-4-yl)-5-methyl-4,5-dihydro-1,3-oxazole]",90 to 100,–,–,–,–
"Cc1ccccc1C1=N[C@H](c2ccc(Br)cc2)[C@H](C)O1 (racemic) [Compound 17, (4R,5S)- and (4S,5R)-4-(4-bromophenyl)-2-(2-methyl)-5-methyl-4,5-dihydro-1,3-oxazole]",< 50,–,–,< 50,–
"C[C@H]1OC(c2c(F)cccc2F)=N[C@@H]1c1ccc(I)cc1 (racemic) [Compound 22, (4R,5R)- and (4S,5S)-4-(4-iodophenyl)-2-(2,6-difluorophenyl)-5-methyl-4,5-dihydro-1,3-oxazole]",–,–,90 to 100,–,CA: activity against cotton aphid (% Control rating) [6]: A (90-100)
"C[C@H]1OC(c2c(F)cccc2Cl)=N[C@@H]1c1ccc(Br)cc1 (racemic) [Compound 23, (4R,5R)- and (4S,5S)-4-(4-bromophenyl)-2-(2-chloro-6-fluorophenyl)-5-methyl-4,5-dihydro-1,3-oxazole]",< 50,–,90 to 100,80 to 89,–
"C[C@@H]1OC(c2c(F)cccc2F)=N[C@H]1c1ccc(-c2ccc(C(F)(F)F)cc2)cc1 (racemic) [Compound 26, (4S,5S)- and (4R,5R)-2-(2,6-difluorophenyl)-5-methyl-4-[4′-(trifluoromethyl)-1,1′-biphenyl-4-yl]-4,5-dihydro-1,3-oxazole]",90 to 100,90 to 100,90 to 100,–,–
"C[C@H]1OC(c2c(F)cccc2F)=N[C@@H]1c1ccc(-c2ccc(OC(F)(F)F)cc2)cc1 (racemic) [Compound 27, (4R,5R)- and (4S,5S)-2-(2,6-difluorophenyl)-4-(4′-trifluoromethoxy-1,1′-biphenyl-4-yl)-5-methyl-4,5-dihydro-1,3-oxazole]",–,–,–,–,CL: activity against cabbage looper (% Control rating) ([1]; 400 ppm): A (90-100); TBW: activity against tobacco budworm (% Control rating) ([5]; 400 ppm): B (80-89); BAW: activity against beet armyworm (% Control rating) ([2]; 400 ppm): A (90-100); SM: activity against two-spotted spider mite (% Control rating) ([3]; 2.5 ppm): A (90-100)
"Cc1ccc(-c2ccc([C@@H]3N=C(c4c(F)cccc4F)O[C@H]3C)cc2)cc1C (racemic) [Compound 29, (4S,5S)- and (4R,5R)-2-(2,6-difluorophenyl)-4-(3′,4′-dimethyl-1,1′-biphenyl-4-yl)-5-methyl-4,5-dihydro-1,3-oxazole]",90 to 100,–,–,–,–
"C[C@@H]1OC(c2c(F)cccc2F)=N[C@H]1c1ccc(-c2ccccc2F)cc1 (racemic) [Compound 31, (4S,5S)- and (4R,5R)-2-(2,6-difluorophenyl)-4-(2′-fluoro-1,1′-biphenyl-4-yl)-5-methyl-4,5-dihydro-1,3-oxazole]",90 to 100,–,–,–,–
"CCOc1ccc(-c2ccc([C@@H]3N=C(c4c(F)cccc4F)O[C@H]3C)cc2)cc1 (racemic) [Compound 33, (4S,5S)- and (4R,5R)-2-(2,6-difluorophenyl)-4-(4′-ethoxy-1,1′-biphenyl-4-yl)-5-methyl-4,5-dihydro-1,3-oxazole]",90 to 100,90 to 100,–,80 to 89,–
"C[C@H]1OC(c2c(F)cccc2F)=N[C@@H]1c1ccccc1 (racemic) [Compound 35, (4R,5R)- and (4S,5S)-4-phenyl-2-(2,6-difluorophenyl)-5-methyl-4,5-dihydro-1,3-oxazole]",< 50,–,–,< 50,–
"C[C@H]1OC(c2c(F)cccc2F)=N[C@H]1c1ccc(-c2ccc(OC(F)(F)F)cc2)cc1 (stereo in doubt) [Compound 49, (4S,5R)-2-(2,6-difluorophenyl)-5-methyl-4-[4′-(trifluoromethoxy)-1,1′-biphenyl-4-yl]-4,5-dihydro-1,3-oxazole]",90 to 100,90 to 100,90 to 100,80 to 89,"pest or weed control at 200 ppm ([4]; Bemisia, 312 h, read-out: WF: activity against whitefly (% Control rating)): 80 to 89%"
"C[C@@H]1OC(c2c(F)cccc2F)=N[C@@H]1c1ccc(-c2ccc(OC(F)(F)F)cc2)cc1 (stereo in doubt) [Compound 51, (4R,5S)-2-(2,6-difluorophenyl)-5-methyl-4-[4′-(trifluoromethoxy)-1,1′-biphenyl-4-yl]-4,5-dihydro-1,3-oxazole]",90 to 100,90 to 100,90 to 100,80 to 89,CA: activity against cotton aphid (% Control rating) [6]: F (less than 50)
"C[C@@H]1OC(c2c(F)cccc2F)=N[C@H]1c1ccc(-c2ccc(OC(F)(F)F)cc2)cc1 [Compound 47, (4S,5S)-2-(2,6-difluorophenyl)-5-methyl-4-[4′-(trifluoromethoxy)-1,1′-biphenyl-4-yl]-4,5-dihydro-1,3-oxazole]",90 to 100,90 to 100,90 to 100,–,–
"C[C@H]1OC(c2c(F)cccc2F)=N[C@@H]1c1ccc(-c2ccc(OC(F)(F)F)cc2)cc1 [Compound 53, (4R,5R)-2-(2,6-difluorophenyl)-5-methyl-4-[4′-(trifluoromethoxy)-1,1′-biphenyl-4-yl]-4,5-dihydro-1,3-oxazole]",90 to 100,90 to 100,90 to 100,–,–
